In publication PMC8778264 (Nanomaterials, 2022):

How the values were obtained:
Assay type in all cases: cell-based
CRL-1739 cells [1] = test: Cellular uptake and cell apoptosis analysis by flow cytometry (Annexin V-FITC / propidium iodide); conditions: 0.05 and 2 mg/mL, 24 h
Description: (§1) The control group comprised untreated cells and fresh culture medium without test compounds. CRL-1739 cells were seeded to a 5 × 10^4 cell density in 24-well plates. […] After the administration of formulations, cells were washed with PBS three times. The cells were trypsinized and suspended in fresh PBS with 10% fetal bovine serum.
The suspended formulations were incubated with 5 μL of Annexin V-FITC and 5 μL of propidium iodide for 15 min at room temperature in the dark. The cell suspensions were analyzed by using Guava easy Cyte in terms of cellular uptake.

CRL-1739 cells [2] = test: In vitro cytotoxicity (MTT assay); conditions: 48 h treatment
Description: The cell line was cultured in DMEM supported with 10% fetal bovine serum, 0.5 mg/mL glutamine/penicillin streptomycin at 37 °C and 5% CO2. […] Ninety-six well flat-bottom plates and […] DMEM were used for the seeding procedure. […] Then, 100 μL of MTT solution (5 mg/mL) was put into each well and incubated at 37 °C. The culture medium was removed. Then, 200 μL of dimethysulfoxide was added to obtain the dissolution of the MTT formazan crystals. The absorbance was read at 570 nm using a microplate reader.

CRL-1739 cells [3] = test: Fluorescence microscopy (Hoechst 33342)
Description: as §1
After treatment with the formulations, CRL-1739 cells were fixed and stained with Hoechst 33342 (blue). The cellular uptake of formulations was performed with a Nikon eclipse fluorescence microscope (Nikon, Japan) at a magnification of 1000×. The stained cell nuclei were evaluated.

## Cc1ccc(NC(=O)c2ccc(CN3CCN(C)CC3)cc2)cc1Nc1nccc(-c2cccnc2)n1 [IMT, Imatinib]
CRL-1739 cells [1]
  cellular uptake (fluorescence intensity, flow cytometry): lower fluorescence intensity than cells administered with F16 and F16-IMT
CRL-1739 cells [2]
  cell viability: 70.5%
CRL-1739 cells [3]
  IMT location and distribution inside cells (fluorescence): low fluorescence when compared to F16 and F16-IMT
